Here are results for one compound from patent US20070287703A1, “Fused Pyrimidones Useful in the Treatment and the Prevention of Cancer” (AstraZeneca AB, priority 2004, published 2007).

By IC50 is commonly meant the concentration that inhibits the measured activity by half.

In this assay the target is T1, recombinant HsEg5 motor domain (amino acids 1-369-8His) (Homo sapiens, UniProt P52732).
T1 construct: recombinant HsEg5 motor domain (amino acids 1-369-8His); 8His (C)
T1 sequence (P52732 1-369): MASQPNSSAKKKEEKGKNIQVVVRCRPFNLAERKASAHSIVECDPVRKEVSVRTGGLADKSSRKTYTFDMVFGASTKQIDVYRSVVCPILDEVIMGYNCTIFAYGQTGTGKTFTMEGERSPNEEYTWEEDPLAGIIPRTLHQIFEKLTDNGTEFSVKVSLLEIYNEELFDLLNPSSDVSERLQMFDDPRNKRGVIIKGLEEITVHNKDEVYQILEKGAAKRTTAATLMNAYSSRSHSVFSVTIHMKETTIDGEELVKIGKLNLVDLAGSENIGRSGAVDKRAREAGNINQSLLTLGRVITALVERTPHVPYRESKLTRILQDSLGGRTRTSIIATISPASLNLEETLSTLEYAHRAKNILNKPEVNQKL
The experiment in a line: Malachite Green Assay of Eg5 motor ATPase activity. Type of assay: biochemical. As to conditions: 6 nM enzyme, 300 μM ATP, 908 nM polymerized tubulin, 20 min pre-incubation, 20 min reaction at room temperature. On the procedure: Enzymatic activity of the Eg5 motor and effects of inhibitors was measured using a malachite green assay, which measures phosphate liberated from ATP, and has been used previously to measure the activity of kinesin motors (Hackney D D, and Jiang W, Assays for kinesin microtubule-stimulated ATPase activity; Methods in Molecular Biology vol 164:65-71 (2001)). Enzyme was recombinant HsEg5 motor domain (amino acids 1-369-8His) and was added at a final concentration of 6 nM to 100 μl reactions. […]
5 μl of compound diluted in 12% DMSO was added to the wells of 96 well plates. […] The reactions were then quenched by the addition of 150 μl malachite green/ammonium molybdate reagent, and absorbance read at 650 nanometers exactly 5 min after quench using a Spectramax Plus plate reader (Molecular Devices). Data was graphed and IC50s calculated using ExCel Fit (Microsoft).

Turning to `CCC(c1nc2n(c(=O)c1Cc1ccccc1)CCCS2)N(CCCN)C(=O)c1ccc(OC)cc1` (stereo not shown) [Example 4, 3,4-Dihydro-6-oxo-7-benzyl-8-{1-[N-(4-methoxybenzoyl)-N-(3-aminopropyl)amino]propyl}-2H,6H-pyrimido[2,1-b][1,3]thiazine], the IC50 was determined as 331 nM.
